We go through twelve compounds from patent US20250177392A1, “BROAD SPECTRUM INHIBITORS OF CYTOMEGALOVIRUS” (MICROBIOTIX, INC., priority 2022, published 2025).

pIC50: −log10 of the molar value. Converted amounts (≈) assume the structure as drawn.

One data set has as its system CMV AD169^IE2-YFP. The data set can be described thus: Anti-CMV activity (IC50) of NAPA compounds, AD169 IE2-YFP reporter virus high-content assay in fibroblasts. Type of data set: cell-based, Human cytomegalovirus. The note with it: Human betaherpesvirus 5, AD169, Fibroblast. The protocol:
To identify CMV inhibitors, a high-content screening (HCS) early-stage-specific reporter assay using a CMV AD169 yellow-fluorescent protein (YFP) expressing virus (AD169^IE2-YFP) (Gardner et al., Antiviral Res., 113:49-61 (2015)) was developed to screen >112,000 compounds to identify potent inhibitors (IC50<10 μM) of cytomegalovirus having a minimal mammalian cytotoxicity (CC50) of preferably ≥100 μM. As a result, we have identified, isolated, and characterized a novel series of N-arylpyrimidinamines (NAPAs) that inhibit CMV infection. […] Further, the NAPA compounds are broadly effective at inhibiting virus infection of diverse strains and cell types.
The CMV IE1 and IE2 gene products are translated within 3-6 hours post infection (hpi) and function to stimulate viral promoters to initiate transcription of early and late viral genes (Cherrington et al., J. Virol., 63:1435-40 (1989); Meier et al., J. Virol., 71:1246-1255 (1997)). The CMV AD169 variant that expresses a viral protein chimera consisting of IE2-YFP (AD1691E2/YFP) was utilized to quantify virus infection in a high-throughput screen by a robust fluorescent signal localized exclusively to the nucleus (8-24 hpi) (Gardner et al., supra (2015); Cohen et al., Viruses, 8 (10): 295 (2016); Cohen et al., J. Virol., 90:10715-10727 (2016)). Using the AD1691E2-YFP reporter virus assay, a collection of the compound libraries (>112,000 compounds) was screened for inhibitors of the early stages of CMV replication using a confocal fluorescence microscopic plate reader (BioTek Cytation3). Infection was calculated as a percentage of nuclei containing YFP and cycloheximide (8 μM) was used as a positive control. The Z′ factor for the optimized assay was >0.5 which was sufficient to initiate screening.
We evaluated 300 primary hits using an assay funnel designed to prioritize compounds based on antiviral activity, specificity, and drug-like properties. This identified two candidates for hit-to-lead optimization that were not Pan Assay Interference compounds (PAINS) (Baell et al., J. Med. Chem., 53:2719-40 (2010); Capuzzi et al., J. Chem. Inf. Model 57:417-427 (2017); Dahlin et al., Assay Drug Dev. Technol., 14:168-174 (2016)). […] The NAPA series was chosen as the primary hit-to-lead series due to its synthetic accessibility and the >2-log range in potency observed in the preliminary SAR that provides a clear pathway to improving antiviral activity and drug-like properties.

Data set [1] in a line: Cytotoxicity (CC50) against Hela cells for 3 d. Type of data set: cell-based. The note with it: human.
The nature of data set [2]: Maximum solubility in water by nephlometry. Type of data set: physicochemical. The note with it: Maximum solubility in water determined by nephlometry; for solubility kinetic: kinetic from dmso stock.
Data set [3] can be described thus: Murine liver microsome stability. Type of data set: in vitro ADME. Particulars: % remaining after 30 min at 37° C. in the presence of NADPH.
The next data set deals with CYP3A4 (Homo sapiens, UniProt P08684). The data set is described as follows: CYP3A4 inhibition at 10 μM. Type of data set: in vitro ADME. The note with it: % inhibition of CYP3A4 at 10 μM.
Sequence of CYP3A4 (P08684 whole entry, species assumed): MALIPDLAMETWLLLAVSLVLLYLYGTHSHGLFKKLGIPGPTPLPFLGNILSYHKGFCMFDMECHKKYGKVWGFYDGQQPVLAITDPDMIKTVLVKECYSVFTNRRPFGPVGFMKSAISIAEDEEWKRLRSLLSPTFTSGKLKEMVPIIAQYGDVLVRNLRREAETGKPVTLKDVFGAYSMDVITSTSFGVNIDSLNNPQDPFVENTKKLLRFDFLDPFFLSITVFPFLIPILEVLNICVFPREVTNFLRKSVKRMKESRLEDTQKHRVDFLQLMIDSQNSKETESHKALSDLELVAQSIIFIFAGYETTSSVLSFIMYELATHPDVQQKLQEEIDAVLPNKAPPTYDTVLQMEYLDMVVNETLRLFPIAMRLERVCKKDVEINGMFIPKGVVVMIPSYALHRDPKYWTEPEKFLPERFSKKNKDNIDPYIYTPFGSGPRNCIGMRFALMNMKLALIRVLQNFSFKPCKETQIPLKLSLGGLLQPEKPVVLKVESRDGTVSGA
For the next data set, the system named is HCMV strain TB40/E. The data set is described as follows: CMV infection (neutralization) assay, IE1 immunostain 24 hpi, TB40/E. Type of data set: cell-based, Human cytomegalovirus. The protocol:
Fibroblasts and ARPE-19 cells (10^4) were plated in 96-well plates (Greiner, Monroe, NC). The following day the cells were pretreated for 1 hour at 37° C. with increasing concentrations of the respective novel NAPA compounds described herein or DMSO in triplicate prior to infection with the respective viruses. At 18 hours post infection (hpi) cells were stained using a rabbit anti-IE1 antibody followed by an anti-rabbit Alexa 647 and measured using a Celigo Cytometer (Parsons et al., Antiviral Res., 193:105124 (2021); Stein et al., Nat. Commun., 10:2699 (2019)). Using the DMSO treated cells as 100% infection, the percent infection of the NAPA compound-treated cells was determined. […]
(§1) To further evaluate the inhibitory properties of MBXC-4302 against CMV, we utilized the AD169 CMV virus strain containing the UL131-UL128 open reading frame of the HCMV strain TR and expressing EGFP (AD169^R) (Wang D. and Shenk T., Proc. Nat. Acad. Sci., USA, 102:18153-18158 (2005)) and TB40/E infection of human fibroblasts (NHDF) and ARPE-19 epithelial cells in the presence of increasing concentration of compound (FIG. 2A-D). Infection was analyzed 24 hours post infection (hpi) by measuring GFP fluorescence encoded by AD169^R or using an anti-IE1 antibody for staining TB40/E infected cells.

The test system of the next data set is HCMV strain AD169^R. The data set can be described thus: CMV infection (neutralization) assay, GFP/IE1 readout 24 hpi, AD169^R. Type of data set: cell-based, Human cytomegalovirus. The protocol:
Fibroblasts and ARPE-19 cells (10^4) were plated in 96-well plates (Greiner, Monroe, NC). The following day the cells were pretreated for 1 hour at 37° C. with increasing concentrations of the respective novel NAPA compounds described herein or DMSO in triplicate prior to infection with the respective viruses. At 18 hours post infection (hpi) cells were stained using a rabbit anti-IE1 antibody followed by an anti-rabbit Alexa 647 and measured using a Celigo Cytometer (Parsons et al., Antiviral Res., 193:105124 (2021); Stein et al., Nat. Commun., 10:2699 (2019)). Using the DMSO treated cells as 100% infection, the percent infection of the NAPA compound-treated cells was determined. The half maximal inhibitory (IC50) values were calculated using Prism9's nonlinear fit [inhibitor]-vs-response (four parameters) analysis of these averages and extrapolation to the concentration that would produce 50% infection relative to DMSO treatment.
as §1
NAPA variants with modified groups were evaluated for inhibition of CMV infection in fibroblasts. AD169^R infected fibroblasts were treated with NAPA compounds MBX-4992, MBXC-4325, MBXC-4330, and MBXC-4336 (0-50 μM) and analyzed for infection at 24 hpi (FIG. 6A-D). The infected cells were probed for IE1 as an indication of virus infection.

The subject of the next data set is AD169^R (IE1 expression). The data set is described as follows: Western blot (immunoblot) of IE1 expression in AD169^R-infected cells. The note with it: NHDF cells, 24 hpi; MBX-4992 1-10 μM, ganciclovir 5 μM, convallotoxin 0.01 μM. Type of data set: cell-based, Human cytomegalovirus. How it is done: The molecular weight markers and respective proteins are indicated.
FIGS. 12A and B are Western Blot assays showing that MBXC-4336 limits expression of IE1 in fibroblasts and epithelial cells. Total cell lysates from AD169^R-infected (MOI 0.2) NHDF (A) and ARPE-19 (B) cells pre-treated with DMSO, MBX-4336 (0, 1, 5, 10, or 20 μM), or heparin (50 μg/mL) collected at 48 hpi were subjected to Western blot analysis using a rabbit anti-IE-1 antibody (lanes 1-7) and an anti-GAPDH antibody (lanes 8-14) as a loading control. The molecular weight markers and respective proteins are indicated.
Total cell lysates from virus infected NHDF cells treated with compounds were created through SDS-lysis (10^4/100 uL of 1% SDS) of at least three rounds of heating at 95° C. for 3 min and vigorous agitation. The total cell lysates were resolved using an SDS-polyacrylamide gel (12.5%), transferred to a PVDF membrane using a semi-dry apparatus. The membrane was then incubated with 1% BSA/PBS for 1 hr at room temperature followed by incubation with anti-IE1 and anti-GAPDH. Finally, the respective secondary antibody conjugated with HRP was incubated with membrane followed by detection using ECL reagents (Millipore).
Next, inhibition of the expression of IE1 in AD169^R-infected cells treated with MBX-4992 was examined by immunoblot analysis (FIG. 4E). […] Collectively, these findings further indicate that MBX-4992 effectively prevents the expression of the immediate-early genes during a CMV infection.

In the data set with CMV AD169^IE2-YFP, `Cc1nc(Nc2ccc(NC(=O)c3ccco3)cc2)cc(N(C)C)n1` [MBX-4991] had a pIC50 of 5.64. The compound also displayed a CC50 at 3 d in data set [1] of over 100 µM. In data set [2], this compound returned a kinetic solubility of over 200 µM. In addition, the MLMS in data set [3] is 65%. Besides, the CYP on CYP3A4 is 18%.

Regarding `Cc1nc(Nc2ccc(NC(=O)c3cccs3)cc2)cc(N(C)C)n1` [MBXC-4294], the pIC50 in the data set on CMV AD169^IE2-YFP is under 4.40. The CC50 at 3 d in data set [1] was 57 µM.

The compound `Cc1nc(Nc2ccc(NC(=O)c3ccco3)cc2)cc(N2CCCCC2)n1` [MBXC-4295] gave a pIC50 with CMV AD169^IE2-YFP of 6.34. This compound also yielded a CC50 at 3 d in data set [1] of 54 µM. In data set [2], this compound had a kinetic solubility of 50 µM (≈ 18.9 µg/mL). Further, the MLMS in data set [3] was determined as 36%. At CYP3A4, the CYP is on record as under 10%.

Consider `Cc1ccc(Nc2cc(Nc3ccc(NC(=O)c4ccco4)cc3)nc(C)n2)cc1` [MBXC-4297], for which the pIC50 in the data set with CMV AD169^IE2-YFP was 6.43. Besides, in data set [1], the CC50 at 3 d is 21 µM. In data set [2], this compound yielded a kinetic solubility of 25 µM (≈ 9.99 µg/mL). For the same compound, the MLMS in data set [3] stood at 44%. In addition, at CYP3A4, the CYP was under 10%.

In turn, `CCNc1cc(Nc2ccc(NC(=O)c3ccco3)cc2)nc(C)n1` [MBXC-4298] gave a pIC50 in the data set on CMV AD169^IE2-YFP of 5.43. Also, half-maximal cytotoxicity in data set [1] (CC50 at 3 d) was put at 29 µM. The same compound yielded a solubility (kinetic) in data set [2] of 200 µM (≈ 67.5 µg/mL). Moreover, the MLMS in data set [3] came to 64%. Further, the CYP at CYP3A4 was determined as 50%.

Consider `Cc1ccc(Nc2nc(C)cc(Nc3ccc(NC(=O)c4ccco4)cc3)n2)cc1` [MBXC-4299], for which the pIC50 in the data set with CMV AD169^IE2-YFP is 6.49. The compound also had a half-maximal cytotoxic concentration (CC50) at 3 d in data set [1] of 5.5 µM. Further, the MLMS in data set [3] stood at 68%. This compound also showed a CYP at CYP3A4 of under 10%.

Compound `Cc1ccc(Nc2nc(C)cc(Nc3ccc(NC(=O)Nc4cccc(Cl)c4)cc3)n2)cc1` [MBXC-4300] showed a pIC50 with CMV AD169^IE2-YFP of 5.42. For the same compound, the CC50 at 3 d in data set [1] came out at 2.7 µM. For the same compound, the Sol entry in data set [2] was “N/A 3.1 μM”. Also, in data set [3], the MLMS entry is “N/A 60%”. For the same compound, the CYP result at CYP3A4 is “N/A 10%”.

In the case of `Cc1ccc(Nc2nc(C)cc(Nc3ccc(NS(=O)(=O)c4ccccc4)cc3)n2)cc1` [MBXC-4301], the pIC50 with CMV AD169^IE2-YFP is 4.62. In data set [1], the CC50 at 3 d was 11 µM.

On to `Cc1nc(Nc2ccc(NC(=O)c3ccco3)cc2)cc(-n2cccn2)n1` [MBXC-4302], for which the pIC50 was 5.49 with CMV AD169^IE2-YFP; about 5.28 in the data set with HCMV strain TB40/E (Human betaherpesvirus 5, ARPE-19); about 5.28 in the data set with HCMV strain TB40/E (Human betaherpesvirus 5, NHDF); 5.24 in the data set on HCMV strain AD169^R (Human betaherpesvirus 5, AD169, ARPE-19); 5.52 in the data set with HCMV strain AD169^R (Human betaherpesvirus 5, AD169, NHDF). This compound also had a CC50 at 3 d in data set [1] of over 100 µM. In data set [2], this compound showed a kinetic solubility of 12.5 µM (≈ 4.5 µg/mL). Also, in data set [3], the MLMS amounted to 62%. This compound showed a CYP at CYP3A4 of under 10%.

For the compound `Cc1cc(Nc2ccccc2)nc(Nc2ccc(NC(=O)c3ccc(Cl)cc3)cc2)n1` [MBXC-4303], the pIC50 in the data set on CMV AD169^IE2-YFP is 4.70. Further, half-maximal cytotoxicity in data set [1] (CC50 at 3 d) was put at 7 µM.

In the data set with CMV AD169^IE2-YFP, `Cc1ccc(Nc2cc(C)nc(Nc3ccc(NC(=O)c4ccco4)cc3)n2)cc1` [MBXC-4304] gave a pIC50 of 6.32. In addition, it took 5.8 µM to reach half-maximal cytotoxicity in data set [1] (CC50 at 3 d). In data set [3], the MLMS was found to be 63%. Besides, at CYP3A4, the CYP was found to be 16%.

With `C[C@@H]1O[C@@H](O[C@H]2CC[C@]3(C=O)[C@H]4CC[C@]5(C)[C@@H](C6=CC(=O)OC6)CC[C@]5(O)[C@@H]4CC[C@]3(O)C2)[C@H](O)[C@H](O)[C@H]1O` [convallatoxin, reference compound], the “IE1 expression by immunoblot” value in the data set with AD169^R (IE1 expression) was “prevented infection”.
